Reference: ChEMBL document CHEMBL6109117, “Synthesis of an RBM39 Degrader That Downregulates CEP192 and Induces Disorganized Spindle Structures” (J Med Chem, 2025)
Active and inactive are the calls of the source. The calls are words filed in the database; no cut-off is given here.

Legend:
HCT-116 [1] = experiment: Induction of apoptosis in human HCT-116 cells assessed as change in PARP level at 0.1 to 5 uM incubated for 48 hrs by Western blot analysis; assay type: functional, cell-based; details: dose 0.1-5 µM
[2] = Effect on RNA splicing in human K562 cells assessed as alternative 5' splice sites at 2 uM incubated for 12 hrs by RNA-seq analysis relative to control; assay type: functional
HCT-116 [3] = experiment: Effect on RNA splicing in human HCT-116 cells assessed as MCL-1 gene alternative splicing at 2 uM incubated for 12 hrs by RNA-seq analysis; assay type: functional, cell-based
RS4-11 [4] = experiment: Effect on RNA splicing in human RS4;11 cells assessed as CEP192 gene skipping exons incubated for 12 hrs by PCR analysis; assay type: functional, cell-based; details: dose 0.1-10 µM
HCT-116 [5] = experiment: Induction of RBM39 degradation in human HCT-116 cells at 3 to 300 nM incubated for 24 hrs in presence of MLN4924 by Western blot analysis; assay type: cell-based; details: dose 3-300 nM
[6] = Effect on RNA splicing in human K562 cells assessed as number of skipping exons at 2 uM incubated for 12 hrs by RNA-seq analysis; assay type: functional
K562 [7] = experiment: Effect on RNA splicing in human K562 cells assessed as CEP192 gene retention of introns up to 10 uM by PCR analysis; assay type: functional, cell-based; details: time 1-24 hrs
HCT-116 [8] = experiment: Induction of cell cycle arrest in human HCT-116 cells assessed as accumulation at G2/M phase at 1 uM incubated for 24 hrs by PI staining based flow cytometry relative to control; assay type: functional
[9] = Effect on RNA splicing in human K562 cells assessed as retention of introns at 2 uM incubated for 12 hrs by RNA-seq analysis relative to control; assay type: functional
[10] = Effect on RNA splicing in human K562 cells assessed as number of mutually exclusive exons at 2 uM incubated for 12 hrs by RNA-seq analysis; assay type: functional
MV4-11 [11] = experiment: Effect on RNA splicing in human MV4-11 cells assessed as CEP192 gene skipping exons incubated for 12 hrs by PCR analysis; assay type: functional, cell-based; details: dose 0.1-10 µM
[12] = Effect on mitosis in human HCT-116 cells assessed as defective mitotic cells at 1 uM incubated for 48 hrs by immunofluorescence based analysis relative to control; assay type: functional
[13] = Effect on mitosis in human HCT-116 cells assessed as normal mitotic cells at 1 uM incubated for 48 hrs by immunofluorescence based analysis relative to control; assay type: functional
[14] = Effect on RNA splicing in human K562 cells assessed as skipping exons at 2 uM incubated for 12 hrs by RNA-seq analysis relative to control; assay type: functional
HCT-116 [15] = experiment: Effect on RNA splicing in human HCT-116 cells assessed as CEP192 gene skipping exons up to 10 uM by PCR analysis; assay type: functional, cell-based; details: time 1-24 hrs
HCT-116 [16] = experiment: Induction of spliceosome function impairment in human HCT-116 cells assessed as fold increase in CUL4A RI transcript at 1 to 10 uM incubated for 12 hrs by qRT-PCR analysis relative to control; assay type: functional; details: dose 1-10 µM
HCT-116 [17] = experiment: Effect on RNA splicing in human HCT-116 cells assessed as RTTN gene retention of intron at 2 uM incubated for 12 hrs by RNA-seq analysis; assay type: functional, cell-based
[18] = Competitive inhibition of N-terminal His-tagged RBM39 (146 to 326 residues)/DCAF15 (2 to 600 residues)/full-length DDB1 (1 to 1140 residues)(unknown origin) incubated for 1 hr in presence of (R)-N-(3-(N-(3-Cyano-4-methyl-1H-indol-7-yl)sulfamoyl)phenyl)-2-(2-(((6-(3-(3',6'-dihydroxy-3-oxo-3H-spiro[isobenzofuran-1,9'-xanthen]-5-yl)thioureido)hexyl)amino)methyl)pyrrolidin-1-yl)-2-oxoacetamide by fluorescence polarization assay; set-up: species or system Homo sapiens
MV4-11 [19] = experiment: Induction of spliceosome function impairment in human MV4-11 cells assessed as decrease in NCKAP1L transcript at 1 to 10 uM incubated for 12 hrs by qRT-PCR analysis; assay type: functional, cell-based; details: dose 1-10 µM
K562 [20] = experiment: Effect on RNA splicing in human K562 cells assessed as CEP192 gene skipping exons up to 10 uM by PCR analysis; assay type: functional, cell-based; details: time 1-24 hrs
MV4-11 [21] = experiment: Induction of spliceosome function impairment in human MV4-11 cells assessed as increase in PRPF38A RI transcript incubated for 12 hrs by qRT-PCR analysis; assay type: functional, cell-based; details: dose 1-10 µM
HCT-116 [22] = experiment: Effect on RNA splicing in human HCT-116 cells assessed as CEP192 gene skipping exons incubated for 12 hrs by PCR analysis; assay type: functional, cell-based; details: dose <= 10.0 µM
HCT-116 [23] = experiment: Induction of apoptosis in human HCT-116 cells assessed as change in caspase-3 level at 0.1 to 5 uM incubated for 48 hrs by Western blot analysis; assay type: functional, cell-based; details: dose 0.1-5 µM
Kasumi 1 = experiment: Antiproliferative activity against human Kasumi 1 cells assessed as inhibition of cell growth incubated for 4 days by CCK8 assay; assay type: functional, cell-based; details: time 4.0 day
K562 [24] = experiment: Antiproliferative activity against human K562 cells assessed as inhibition of cell growth incubated for 4 days by CCK8 assay; assay type: functional, cell-based; details: time 4.0 day
RS4-11 [25] = experiment: Effect on RNA splicing in human RS4;11 cells assessed as CEP192 gene retention of introns incubated for 12 hrs by PCR analysis; assay type: functional, cell-based; details: dose 0.1-10 µM
HCT-116 [26] = experiment: Effect on RNA splicing in human HCT-116 cells assessed as RTTN gene exon splicing at 2 uM incubated for 12 hrs by RNA-seq analysis; assay type: functional, cell-based
K562 [27] = experiment: Effect on RNA splicing in human K562 cells assessed as CEP192 gene skipping exon at 2 uM incubated for 12 hrs by RNA-seq analysis; assay type: functional, cell-based
[28] = Effect on RNA splicing in human HCT-116 cells assessed as number of mutually exclusive exons at 2 uM incubated for 12 hrs by RNA-seq analysis; assay type: functional
K562 [29] = experiment: Effect on RNA splicing in human K562 cells assessed as ESPL1 gene skipping exon at 2 uM incubated for 12 hrs by RNA-seq analysis; assay type: functional, cell-based
RS4-11 [30] = experiment: Antiproliferative activity against human RS4;11 cells assessed as inhibition of cell growth incubated for 4 days by CCK8 assay; assay type: functional, cell-based; details: time 4.0 day
HCT-116 [31] = experiment: Effect on RNA splicing in human HCT-116 cells assessed as ESPL1 gene alternative 5' splice site at 2 uM incubated for 12 hrs by RNA-seq analysis; assay type: functional, cell-based
K562 [32] = experiment: Effect on RNA splicing in human K562 cells assessed as CEP192 gene retention of introns incubated for 12 hrs by PCR analysis; assay type: functional, cell-based; details: dose 0.1-10 µM
K562 [33] = experiment: Effect on RNA splicing in human K562 cells assessed as CEP192 gene alternative 3' splicing site at 2 uM incubated for 12 hrs by RNA-seq analysis; assay type: functional, cell-based
MOLM-13 = experiment: Antiproliferative activity against human MOLM-13 cells assessed as inhibition of cell growth incubated for 4 days by CCK8 assay; assay type: functional, cell-based; details: time 4.0 day
HCT-116 [34] = experiment: Induction of spliceosome function impairment in human HCT-116 cells assessed as increase in CUL4A RI transcript at 1 to 10 uM incubated for 12 hrs by qRT-PCR analysis; assay type: functional, cell-based; details: dose 1-10 µM
HCT-116 [35] = experiment: Induction of spliceosome function impairment in human HCT-116 cells assessed as increase in PRPF38A RI transcript at 1 to 10 uM incubated for 12 hrs by qRT-PCR analysis; assay type: functional, cell-based; details: dose 1-10 µM

Cc1ccc(NS(=O)(=O)c2cccc(NC(=O)C(=O)N3CCC[C@@H]3CO)c2)c2[nH]cc(C#N)c12
Activity (HCT-116 [1]): inactive | Activity [2]: 3.6% | Activity (HCT-116 [3]): No effect | Activity (RS4-11 [4]): Dose-dependent-effect; Observed Skipping Of Exons 42, 28 And 13 | Activity (HCT-116 [5]): inactive | Activity [6]: 12285 | Activity (K562 [7]): Time-dependent-effect; Observed Retention Of Introns Between Exons 27 And 28 | Activity (HCT-116 [8]): 33% | Activity [9]: 8.4% | Activity [10]: 1801 | Activity (MV4-11 [11]): Dose-dependent-effect; Observed Skipping Of Exons 42, 28 And 13 | Activity [12]: 21.8% | Activity [13]: 0.8% | Activity [14]: 70.6% | Activity (HCT-116 [15]): Time-dependent-effect; Observed Skipping Of Exons 42, 28 And 13 | fold change (FC) (HCT-116 [16]): 3 | Activity (HCT-116 [17]): Active | IC50 [18]: 594 nM | Activity (MV4-11 [19]): Active | Activity (K562 [20]): Time-dependent-effect; Observed Skipping Exons 42 And 28 | Activity (MV4-11 [21]): Active | Activity (HCT-116 [22]): Dose-dependent-effect; Observed Skipping Of Exons 42, 28 And 13 | Activity (HCT-116 [23]): inactive | inhibition (Kasumi 1): Active | inhibition (K562 [24]): Active | Activity (RS4-11 [25]): Dose-dependent-effect; Observed Retention Of Introns Between Exons 27 And 28 | Activity (HCT-116 [26]): Active | Activity (K562 [27]): Active | Activity [28]: 515 | Activity (K562 [29]): Active | inhibition (RS4-11 [30]): Active | Activity (HCT-116 [31]): Active | Activity (K562 [32]): Dose-dependent-effect; Observed Retention Of Introns Between Exons 27 And 28 | Activity (K562 [33]): Active | inhibition (MOLM-13): Active

NS(=O)(=O)c1ccc(S(=O)(=O)Nc2cccc3c(Cl)c[nH]c23)cc1 [INDISULAM]
Activity (HCT-116 [1]): inactive | Activity (HCT-116 [3]): No effect | Activity (HCT-116 [5]): inactive | Activity (K562 [7]): Time-dependent-effect; Observed Retention Of Introns Between Exons 27 And 28 | Activity [12]: 18.3% | Activity (HCT-116 [34]): Active | Activity [13]: 1.4% | Activity (HCT-116 [17]): Active | IC50 [18]: 417 nM | Activity (MV4-11 [19]): Active | Activity (K562 [20]): Time-dependent-effect; Observed Skipping Exons 42 And 28 | Activity (MV4-11 [21]): Active | Activity (HCT-116 [23]): inactive | Activity (HCT-116 [35]): Active | Activity (HCT-116 [26]): Active | Activity (K562 [27]): Active | Activity [28]: 667 | Activity (K562 [29]): Active | Activity (HCT-116 [31]): Active | Activity (K562 [33]): Active
